Values quoted from earlier work as cited in patent publication US5240711A, “Transdermal therapeutic system comprising as active component buprenorphine” (LTS Lohmann Therapie-Systeme GmbH & Co. KG, priority 1989, dated 1993).

Which “solubility in conventional organic solvents and water” value does the source give for CO[C@]12CC[C@@]3(C[C@@H]1[C@](C)(O)C(C)(C)C)[C@H]1Cc4ccc(O)c5c4[C@@]3(CCN1CC1CC1)[C@H]2O5 [buprenorphine, 17-(cyclopropylmethyl)-α-(1,1-dimethylethyl)-4,5-epoxy-18,19-dihydro-3-hydroxy-6-methoxy-α-methyl-6,14-ethenomorphinane-7-methanol] here?
The value was “very slight solubility”.

And the “penetration through the human skin” value (human skin)?
The value was “only badly penetrates through the human skin”.
